From patent US20230286983A1 (4E Therapeutics, Inc., priority 2020, published 2023)
pIC50: −log10 of the molar value. Values joined by “and” are separate entries in the source; they are usually repeats but may differ in a detail not shown here. Equal values may be shown once. Read-outs that look alike come from different tables or passages of the source.

How the values were obtained:
[1] = system: eIF4E phosphorylation at Serine 209 in the human embryonic kidney (HEK) 293 cell line; experiment: eIF4E phosphorylation in HEK 293 cells (fluorescent plate reader); assay type: cell-based; conditions: Homo sapiens, HEK293, 2 h, eIF4E phosphorylation at Serine 209, 2 hours exposure
Summary of the method: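 HEK-293 cells were treated with compound for 2 h, then methanol-fixed and Triton-permeabilized. Ser209 phospho-eIF4E was stained with primary antibody (1:2000, overnight) and an Alexa Fluor 488 secondary. Fluorescence was normalized to DAPI, and IC50 was fitted from concentration-response data.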

P-gp (human MDR1, ABCB1) = experiment: MDCK-MDR1 permeability (blood brain barrier permeability); assay type: in vitro ADME, Canine; conditions: dog; for efflux ratio at 5 μM: MDCK-MDR1, 5 μM, read-out: Efflux ratio (ratio B-A/A-B); for Papp A→B at 5 μM: MDCK-MDR1, Apical to basolateral transport; for Papp A→B at 5 μM / Papp B→A at 5 μM: average of two experiments; for Papp B→A at 5 μM: MDCK-MDR1, Basolateral to apical transport
MNK2 = MNK2 (Homo sapiens, UniProt Q9HBH9); experiment: MNK2 substrate phosphorylation assay; assay type: biochemical; conditions: recombinant human kinase
MNK1 = MNK1 (Homo sapiens, UniProt Q9BUB5); experiment: MNK1 substrate phosphorylation assay; assay type: biochemical; conditions: recombinant human kinase
[2] = Liver microsome stability, mouse; assay type: in vitro ADME; conditions: mouse, liver microsomes, mouse liver microsomes, Table 11b; read-out: T1/2
[3] = Brain vs plasma concentration, 4ET-03-009 at 10 mg/kg; assay type: in vivo, mice; conditions: 10 mg/kg oral, 2 hours after dosing; for concentration at 2 hours: oral, 10 mg/kg
Experimental: In separate mice administered the same therapy, brain tissue was harvested 2 hours after dosing and brain concentration of the MNK inhibitor was measured by homogenizing brain tissue followed by LC-MS/MS analysis. Plasma concentration was measured as described above.

[4] = Pharmacokinetic study, 4ET-03-009 at 20 mg/kg oral; assay type: in vivo, CD-1 male mice; conditions: for AUCinf/D / Cmax/D: dose normalized; for concentration at 0.083 hours / concentration at 0.25 hours / concentration at 0.5 hours / concentration at 1 hours / concentration at 2 hours / concentration at 4 hours / concentration at 6 hours / concentration at 8 hours / concentration at 24 hours: oral
Experimental: Compound 4ET-03-009 was dissolved in a 10% dimethylacetamide (DMA)/3000 polyethylene glycol (PEG) 300/400% propylene glycol (PG)/200% water solvent. […] Plasma was collected at indicated timepoints and plasma concentration of compound 4ET-03-009 was measured using liquid chromatography-mass spectrometry/mass spectrometry (LC-MS/MS). Results are presented in FIG. 1 and Tables 3, 4, and 5.
Compound 4ET-03-009 was dissolved in a 10% dimethylacetamide (DMA)/30% polyethylene glycol (PEG) 300/40% propylene glycol (PG)/20% water solvent. Dosing and assay were performed as described in Biological Example 2. Results are presented in FIG. 3 and Tables 7, 8, and 9, below.

[5] = system: eIF4E phosphorylation at Serine 209 in the human osteosarcoma (U2OS) cell line; experiment: eIF4E phosphorylation in U2OS cells (fluorescent plate reader); assay type: cell-based; conditions: Homo sapiens, U2OS; eIF4E phosphorylation at Serine 209, 2 hours exposure
Experimental: The ability of MNK inhibitors described herein to inhibit eIF4E phosphorylation at Serine 209 in the human osteosarcoma (U2OS) cell line was tested by exposing the cells to compound for 2 hours and then measuring eIF4E phosphorylation with a phosphorylation-specific antibody in a fluorescent plate reader.

[6] = male, CD-1, mouse, plasma, po, 20 mg/kg, Mean (n = 3)
[7] = male, CD-1, mouse, plasma, po, 20 mg/kg, individual animals

Chain of MNK2 (Q9HBH9 whole entry): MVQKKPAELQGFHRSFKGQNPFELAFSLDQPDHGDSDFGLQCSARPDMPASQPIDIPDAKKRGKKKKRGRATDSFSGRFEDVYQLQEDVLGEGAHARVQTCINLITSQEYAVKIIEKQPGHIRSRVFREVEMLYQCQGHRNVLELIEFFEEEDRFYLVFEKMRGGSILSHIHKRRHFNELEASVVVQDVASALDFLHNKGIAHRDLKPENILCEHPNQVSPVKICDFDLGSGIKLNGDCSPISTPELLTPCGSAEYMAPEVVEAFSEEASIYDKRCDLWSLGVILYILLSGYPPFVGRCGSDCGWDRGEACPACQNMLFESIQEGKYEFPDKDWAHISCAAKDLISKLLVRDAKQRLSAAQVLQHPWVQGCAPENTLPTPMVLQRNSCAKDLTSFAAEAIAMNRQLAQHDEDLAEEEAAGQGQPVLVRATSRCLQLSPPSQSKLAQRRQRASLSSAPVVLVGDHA
Chain of MNK1 (Q9BUB5 whole entry): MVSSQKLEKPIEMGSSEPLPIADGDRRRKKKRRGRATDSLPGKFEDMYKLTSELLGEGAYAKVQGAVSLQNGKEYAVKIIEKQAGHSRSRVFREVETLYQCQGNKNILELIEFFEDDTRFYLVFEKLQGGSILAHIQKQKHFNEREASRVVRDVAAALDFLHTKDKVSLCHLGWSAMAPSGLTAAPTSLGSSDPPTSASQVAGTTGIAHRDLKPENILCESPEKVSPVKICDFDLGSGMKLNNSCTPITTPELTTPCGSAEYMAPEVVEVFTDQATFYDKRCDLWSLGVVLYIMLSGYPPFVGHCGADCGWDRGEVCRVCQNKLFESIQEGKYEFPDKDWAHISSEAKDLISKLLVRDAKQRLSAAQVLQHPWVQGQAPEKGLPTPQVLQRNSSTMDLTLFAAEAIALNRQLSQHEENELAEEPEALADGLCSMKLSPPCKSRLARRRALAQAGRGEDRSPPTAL

`CCC1=CC2(CCC1)NC(=O)c1c(C)cc(Nc3cc(N)ncn3)c(=O)n12` (stereo not shown) [Compound 4ET-01-021, 6′-((6-Aminopyrimidin-4-yl)amino)-3-ethyl-8′-methyl-2′H-spiro[cyclohexane-1,3′-imidazo[1,5-a]pyridin]-2-ene-1′,5′-dione] showed a pIC50 [1] of 8.22, an efflux ratio at 5 μM (P-gp (human MDR1, ABCB1)) of 0.9 and a Papp A→B at 5 μM (P-gp (human MDR1, ABCB1)) of 55.3 ×10⁻⁶ cm/s. For the same compound, the Papp B→A at 5 μM (P-gp (human MDR1, ABCB1)) was 52 ×10⁻⁶ cm/s, the pIC50 (MNK2) was 8.24 and the pIC50 (MNK1) was 7.41. It also gave a half-life [2] of 93 min.
In the case of `Cc1cc(Nc2cc(NC(=O)C3CC3)ncn2)c(=O)n2c1C(=O)NC21CCOCC1` [Compound 4ET-03-009, N-(6-((8-Methyl-1,5-dioxo-1,2′,3′,5,5′,6′-hexahydro-2H-spiro[imidazo[1,5-a]pyridine-3,4′-pyran]-6-yl)amino)pyrimidin-4-yl)cyclopropanecarboxamide], the brain entry [3] was “enters the brain very poorly”, the “Tissue Homogenate Conc. n = 3” value ([3]; Brain, individual) was 5.5 ng/mL and 7.28 ng/mL and the “Plasma Conc. n = 3” value ([3]; Plasma, individual) was 292 ng/mL and 337 ng/mL. It also gave a concentration at 2 hours ([3]; CD-1, mouse, brain homogenate, Brain, individual, read-out: Tissue Homogenate Conc. n = 3) of 7.67 ng/mL, a concentration at 2 hours ([3]; CD-1, mouse, brain homogenate, Brain, read-out: Tissue Homogenate Conc. Mean) of 6.82 ng/mL and a concentration at 2 hours ([3]; CD-1, mouse, brain, Brain, read-out: Mean Tissue) of 27.3 ng/g. For the same compound, the Kp at 2 hours ([3]; CD-1, mouse, brain/plasma, Brain, read-out: Mean Tissue/Plasma Conc. Ratio) was 0.083, the concentration at 2 hours ([3]; CD-1, mouse, plasma, Plasma, individual, read-out: Plasma Conc. n = 3) was 357 ng/mL and the concentration at 2 hours ([3]; CD-1, mouse, plasma, Plasma, read-out: Plasma Conc. Mean) was 329 ng/mL. For the same compound, the pIC50 [1] was 8.77, the “abnormal clinical symptoms during the study” value [4] was “No abnormal clinical symptoms were observed” and the “Plasma Conc. (per mouse n = 3)” value ([4]; 0.083 hours) was 384 ng/mL and 304 ng/mL. For the same compound, the “Plasma Conc. (per mouse n = 3)” value ([4]; 0.25 hours) was 529 ng/mL and 396 ng/mL, the “Plasma Conc. (per mouse n = 3)” value ([4]; 0.5 hours) was 607 ng/mL and 497 ng/mL and the “Plasma Conc. (per mouse n = 3)” value ([4]; 1 hours) was 561 ng/mL and 448 ng/mL. The “Plasma Conc. (per mouse n = 3)” value ([4]; 2 hours) was 372 ng/mL and 286 ng/mL, the “Plasma Conc. (per mouse n = 3)” value ([4]; 4 hours) was 144 ng/mL and 135 ng/mL and the “Plasma Conc. (per mouse n = 3)” value ([4]; 6 hours) was 71.3 ng/mL and 58.7 ng/mL. The “Plasma Conc. (per mouse n = 3)” value ([4]; 8 hours) was 51.4 ng/mL and 41.5 ng/mL, the “Plasma Conc. (per mouse n = 3)” value ([4]; 24 hours) was 2.01 ng/mL and 1.89 ng/mL and the Tlast ([4]; Mean (n = 3)) was 24.0 h. It also gave a t1/2 ([4]; Mean (n = 3)) of 3.55 h, an AUCinf/D ([4]; Mean (n = 3)) of 113 kg·h/kL and a Cmax/D ([4]; Mean (n = 3)) of 29.5 kg/kL. The AUC0-8 hours ([4]; individual animals) was 1847 ng·h/mL and 1501 ng·h/mL, the AUCinf ([4]; individual animals) was 2284 ng·h/mL and 1858 ng·h/mL and the AUClast ([4]; individual animals) was 2274 ng·h/mL and 1848 ng·h/mL. For the same compound, the Clast ([4]; individual animals) was 2.01 ng/mL and 1.89 ng/mL, the Cmax ([4]; individual animals) was 607 ng/mL and 497 ng/mL and the MRTinf ([4]; individual animals) was 3.53 h. The Tlast ([4]; individual animals) was 24.0 h, the t1/2 ([4]; individual animals) was 3.47 h and 3.61 h and the AUCinf/D ([4]; individual animals) was 131 kg·h/kL and 114 kg·h/kL and 92.9 kg·h/kL. The Cmax/D ([4]; individual animals) was 33.3 kg/kL and 30.4 kg/kL and 24.9 kg/kL, the Tmax ([4]; male, CD-1, mouse, plasma, individual animals) was 30 min and the concentration at 0.083 hours ([4]; male, CD-1, mouse, plasma, 20 mg/kg, 0.083 hours, mean n = 3, read-out: Plasma Conc. Mean) was 331 ng/mL. For the same compound, the concentration at 0.083 hours ([4]; male, CD-1, mouse, plasma, 20 mg/kg, 0.083 hours, read-out: Plasma Conc. (per mouse n = 3)) was 304 ng/mL, the concentration at 0.25 hours ([4]; male, CD-1, mouse, plasma, 20 mg/kg, 0.25 hours, mean n = 3, read-out: Plasma Conc. Mean) was 530 ng/mL and the concentration at 0.25 hours ([4]; male, CD-1, mouse, plasma, 20 mg/kg, 0.25 hours, read-out: Plasma Conc. (per mouse n = 3)) was 665 ng/mL. The concentration at 0.5 hours ([4]; male, CD-1, mouse, plasma, 20 mg/kg, 0.5 hours, mean n = 3, read-out: Plasma Conc. Mean) was 590 ng/mL, the concentration at 0.5 hours ([4]; male, CD-1, mouse, plasma, 20 mg/kg, 0.5 hours, read-out: Plasma Conc. (per mouse n = 3)) was 666 ng/mL and the concentration at 1 hours ([4]; male, CD-1, mouse, plasma, 20 mg/kg, 1 hours, mean n = 3, read-out: Plasma Conc. Mean) was 553 ng/mL. It also gave a concentration at 1 hours ([4]; male, CD-1, mouse, plasma, 20 mg/kg, 1 hours, read-out: Plasma Conc. (per mouse n = 3)) of 649 ng/mL, a concentration at 2 hours ([4]; male, CD-1, mouse, plasma, 20 mg/kg, 2 hours, mean n = 3, read-out: Plasma Conc. Mean) of 355 ng/mL and a concentration at 2 hours ([4]; male, CD-1, mouse, plasma, 20 mg/kg, 2 hours, read-out: Plasma Conc. (per mouse n = 3)) of 408 ng/mL. It also gave a concentration at 4 hours ([4]; male, CD-1, mouse, plasma, 20 mg/kg, 4 hours, mean n = 3, read-out: Plasma Conc. Mean) of 153 ng/mL, a concentration at 4 hours ([4]; male, CD-1, mouse, plasma, 20 mg/kg, 4 hours, read-out: Plasma Conc. (per mouse n = 3)) of 180 ng/mL and a concentration at 6 hours ([4]; male, CD-1, mouse, plasma, 20 mg/kg, 6 hours, mean n = 3, read-out: Plasma Conc. Mean) of 74.5 ng/mL. It also gave a concentration at 6 hours ([4]; male, CD-1, mouse, plasma, 20 mg/kg, 6 hours, read-out: Plasma Conc. (per mouse n = 3)) of 93.6 ng/mL, a concentration at 8 hours ([4]; male, CD-1, mouse, plasma, 20 mg/kg, 8 hours, mean n = 3, read-out: Plasma Conc. Mean) of 50.2 ng/mL and a concentration at 8 hours ([4]; male, CD-1, mouse, plasma, 20 mg/kg, 8 hours, read-out: Plasma Conc. (per mouse n = 3)) of 57.6 ng/mL. The concentration at 24 hours ([4]; male, CD-1, mouse, plasma, 20 mg/kg, 24 hours, mean n = 3, read-out: Plasma Conc. Mean) was 2.22 ng/mL, the concentration at 24 hours ([4]; male, CD-1, mouse, plasma, 20 mg/kg, 24 hours, read-out: Plasma Conc. (per mouse n = 3)) was 2.75 ng/mL and the concentration at 24 hours ([4]; male, CD-1, mouse, plasma, 20 mg/kg, Mean (n = 3), read-out: Clast) was 2.22 ng/mL. For the same compound, the concentration at 24 hours ([4]; male, CD-1, mouse, plasma, 20 mg/kg, individual animals, read-out: Clast) was 2.75 ng/mL, the AUC(0-inf) [4, 6] was 2260 ng·h/mL and the MRT inf [4, 6] was 3.59 h. It also gave a half-life [4, 6] of 216 min, an AUC(0-t) ([4]; male, CD-1, mouse, plasma, po, 20 mg/kg, Mean (n = 3), read-out: AUC0-8 hours) of 1830 ng·h/mL and an AUC(0-t) ([4]; male, CD-1, mouse, plasma, po, 20 mg/kg, Mean (n = 3), read-out: AUClast) of 2240 ng·h/mL. For the same compound, the Cmax ([4]; male, CD-1, mouse, plasma, po, 20 mg/kg, Mean (n = 3), read-out: Cmax) was 590 ng/mL, the AUC(0-inf) ([4]; male, CD-1, mouse, plasma, po, 20 mg/kg, for the study) was 2260 ng·h/mL and the Cmax ([4]; male, CD-1, mouse, plasma, po, 20 mg/kg, for the study, read-out: Cmax) was 1400 nM. It also gave an AUC(0-inf) [4, 7] of 2630 ng·h/mL, an MRT inf [4, 7] of 3.63 h and a half-life [4, 7] of 215 min. The AUC(0-t) ([4]; male, CD-1, mouse, plasma, po, 20 mg/kg, individual animals, read-out: AUC0-8 hours) was 2130 ng·h/mL, the AUC(0-t) ([4]; male, CD-1, mouse, plasma, po, 20 mg/kg, individual animals, read-out: AUClast) was 2610 ng·h/mL and the Cmax ([4]; male, CD-1, mouse, plasma, po, 20 mg/kg, individual animals, read-out: Cmax) was 666 ng/mL. The efflux ratio at 5 μM (P-gp (human MDR1, ABCB1)) was 4.6, the Papp A→B at 5 μM (P-gp (human MDR1, ABCB1)) was 5.4 ×10⁻⁶ cm/s and the Papp B→A at 5 μM (P-gp (human MDR1, ABCB1)) was 25 ×10⁻⁶ cm/s. It also gave a pIC50 (MNK2) of 8.59, a pIC50 (MNK1) of 7.50 and a pIC50 [5] of 8.77.
